Laboratory results published in patent US20110263822A1, “COMPOSITION FOR THE PROPHYLAXIS AND TREATMENT OF HBV INFECTIONS AND HBV-MEDIATED DISEASES” (Rhein Biotech Gesellschaft Fur Neue Biotechnologische …, priority 2003, published 2011).
Ends that are not written are not given here.

Target: MHC class I molecules K^b (Mus musculus, UniProt P01901)
Test: biochemical
Conditions: 48 hours at 18° C.; read-out: K^b-binding

Sequence of MHC class I molecules K^b (P01901 whole entry, looked up): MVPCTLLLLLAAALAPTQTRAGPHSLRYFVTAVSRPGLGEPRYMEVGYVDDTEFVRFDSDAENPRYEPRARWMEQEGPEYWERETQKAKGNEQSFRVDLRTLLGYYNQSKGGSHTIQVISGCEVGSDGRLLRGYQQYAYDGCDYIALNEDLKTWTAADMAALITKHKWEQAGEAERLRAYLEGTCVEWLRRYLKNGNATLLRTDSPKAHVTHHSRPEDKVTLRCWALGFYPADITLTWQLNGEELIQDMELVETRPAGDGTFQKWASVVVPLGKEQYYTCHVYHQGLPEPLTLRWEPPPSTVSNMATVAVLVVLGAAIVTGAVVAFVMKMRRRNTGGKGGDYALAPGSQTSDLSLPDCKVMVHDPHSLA

With IVSPFIPL [IVSPFIPL] the IC50 was 0.773 µM.
